Measurements published in PMC4488857 (PLoS ONE, 2015).

Legend:
[1] = biological target: T1, multidrug resistance-associated protein 2 (MRP2) (Homo sapiens, UniProt Q92887); assay: inhibition of ATP-dependent platinum uptake (oxaliplatin […]) in MRP2-expressing membrane vesicles, ICPMS; […] reduction at […]; format: cell-based; set-up: gene ABCC2; human MRP2 in inside-out Sf9 membrane vesicles
[2] = biological target: T1, multidrug resistance-associated protein 2 (MRP2); assay: inhibition of ATP-dependent platinum uptake (oxaliplatin […]) in MRP2-expressing membrane vesicles, ICPMS; format: biochemical; set-up: gene ABCC2; human MRP2 in inside-out Sf9 membrane vesicles
[3] = biological target: T1, multidrug resistance-associated protein 2 (MRP2); set-up: gene ABCC2

T1 sequence (Q92887 whole entry): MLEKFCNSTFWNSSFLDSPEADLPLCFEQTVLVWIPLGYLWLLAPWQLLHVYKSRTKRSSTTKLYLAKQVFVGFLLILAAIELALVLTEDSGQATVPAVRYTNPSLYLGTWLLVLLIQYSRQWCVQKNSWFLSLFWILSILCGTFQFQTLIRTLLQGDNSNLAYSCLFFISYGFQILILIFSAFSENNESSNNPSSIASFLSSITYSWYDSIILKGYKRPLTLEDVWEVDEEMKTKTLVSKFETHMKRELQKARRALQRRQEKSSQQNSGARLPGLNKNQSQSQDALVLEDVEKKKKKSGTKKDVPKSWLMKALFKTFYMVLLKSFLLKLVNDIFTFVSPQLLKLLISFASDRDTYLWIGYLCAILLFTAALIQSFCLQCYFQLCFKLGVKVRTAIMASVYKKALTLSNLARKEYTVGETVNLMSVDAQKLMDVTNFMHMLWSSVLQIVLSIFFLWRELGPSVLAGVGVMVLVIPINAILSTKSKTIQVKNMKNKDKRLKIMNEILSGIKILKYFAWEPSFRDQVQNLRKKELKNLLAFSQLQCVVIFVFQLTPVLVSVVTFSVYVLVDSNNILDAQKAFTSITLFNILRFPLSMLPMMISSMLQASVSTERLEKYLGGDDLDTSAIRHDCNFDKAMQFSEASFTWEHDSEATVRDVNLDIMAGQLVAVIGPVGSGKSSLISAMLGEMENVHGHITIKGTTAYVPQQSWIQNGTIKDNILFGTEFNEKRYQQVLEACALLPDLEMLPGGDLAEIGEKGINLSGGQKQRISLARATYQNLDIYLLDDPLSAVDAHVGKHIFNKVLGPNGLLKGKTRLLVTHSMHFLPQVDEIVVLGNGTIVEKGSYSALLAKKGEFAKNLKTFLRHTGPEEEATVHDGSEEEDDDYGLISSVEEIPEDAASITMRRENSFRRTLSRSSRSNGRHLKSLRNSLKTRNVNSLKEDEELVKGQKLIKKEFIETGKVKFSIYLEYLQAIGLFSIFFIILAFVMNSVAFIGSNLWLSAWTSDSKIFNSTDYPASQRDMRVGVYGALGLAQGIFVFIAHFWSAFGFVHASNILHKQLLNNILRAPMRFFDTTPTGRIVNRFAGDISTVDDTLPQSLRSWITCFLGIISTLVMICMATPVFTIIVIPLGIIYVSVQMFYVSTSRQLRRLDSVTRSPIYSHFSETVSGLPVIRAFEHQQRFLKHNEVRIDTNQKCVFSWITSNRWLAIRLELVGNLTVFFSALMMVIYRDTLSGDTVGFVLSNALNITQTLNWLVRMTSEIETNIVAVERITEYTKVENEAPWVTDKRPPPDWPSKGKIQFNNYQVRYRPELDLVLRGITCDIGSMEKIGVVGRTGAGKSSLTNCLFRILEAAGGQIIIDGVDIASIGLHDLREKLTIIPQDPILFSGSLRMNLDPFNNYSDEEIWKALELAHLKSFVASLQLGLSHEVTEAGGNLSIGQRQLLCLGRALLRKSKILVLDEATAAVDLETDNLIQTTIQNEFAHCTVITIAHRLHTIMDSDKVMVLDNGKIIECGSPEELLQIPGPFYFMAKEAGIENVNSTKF

Q: `CN(C)C(=O)CCSC(SCCC(=O)O)c1cccc(/C=C/c2ccc3ccc(Cl)cc3n2)c1` (stereo not drawn) [MK571] was tested. Which inhibition at 100 µM [1] did it give?
A: 96%

Q: Which IC50 [2] does the source give for `O=c1c(O)c(-c2cc(O)c(O)c(O)c2)oc2cc(O)cc(O)c12` [myricetin] here?
A: 10 to 100 µM

Q: How did the Km [3] turn out when `O=C1[O][Pt]2([NH][C@@H]3CCCC[C@H]3[NH]2)[O]C1=O` [oxaliplatin] was run?
A: 301 µM
